Reference: ChEMBL document CHEMBL1201862, “PubChem BioAssay data set” (2004)
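Tested at 5 concentrations; 48 h exposure; 96-well plates; endpoints linearly interpolated, else capped at highest concentration. Abbreviation: GI50, concentration required for 50% inhibition of growth.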 Calls of active or inactive are those of the source. Cut-off read from the data, not from the text of the source: active = GI50 up to about 1.1 µM and inactive = higher.

Key:
Assay in all cases: NCI anticancer screen, dose series, 48 h
SN12C = tested on: SN12C
UACC-257 = tested on: UACC-257
LOX IMVI = tested on: LOX IMVI
A498 = tested on: A498
MCF7 = tested on: MCF7
TK-10 = tested on: TK-10
HCT-15 = tested on: HCT-15
NCI-H522 = tested on: NCI-H522
M14 = tested on: M14
OVCAR-8 = tested on: OVCAR-8
RXF 393 = tested on: RXF 393
Malme-3M = tested on: Malme-3M
SR = tested on: SR
SNB-75 = tested on: SNB-75
BT-549 = tested on: BT-549
NCI-H226 = tested on: NCI-H226
SF-295 = tested on: SF-295
DU-145 = tested on: DU-145
HL-60 = tested on: HL-60
MOLT-4 = tested on: MOLT-4

SMILES	GI50 (SN12C)	GI50 (UACC-257)	GI50 (LOX IMVI)	GI50 (A498)	GI50 (MCF7)	GI50 (TK-10)	GI50 (HCT-15) [µM]	GI50 (NCI-H522)	GI50 (M14)	GI50 (OVCAR-8)	GI50 (RXF 393)	GI50 (Malme-3M)	GI50 (SR)	GI50 (SNB-75)	GI50 (BT-549)	GI50 (NCI-H226)	GI50 (SF-295)	GI50 (DU-145)	GI50 (HL-60)	GI50 (MOLT-4)
Brc1ccc2c(-c3nc(-c4c[nH]c5ccccc45)cs3)c[nH]c2c1	42.9 µM (inactive)	69.2 µM (inactive)	10.4 µM (inactive)	22.7 µM (inactive)	28.8 µM (inactive)	12.7 µM (inactive)	16.8	48 µM (inactive)	51.6 µM (inactive)	36.4 µM (inactive)	17.6 µM (inactive)	> 100 µM (inactive)	13.2 µM (inactive)	37.4 µM (inactive)	34.8 µM (inactive)	39 µM (inactive)	20.3 µM (inactive)	23.4 µM (inactive)	63 µM (inactive)	26.7 µM (inactive)
Cc1nnc(Sc2nc(C#N)c(C#N)nc2Sc2nnc(C)s2)s1	9.33 µM (inactive)	10.4 µM (inactive)	2.72 µM (inactive)	18.7 µM (inactive)	5.82 µM (inactive)	11.1 µM (inactive)	2.6	1.57 µM (inactive)	8.2 µM (inactive)	2.47 µM (inactive)	1.92 µM (inactive)	0.139 µM (active)	9.79 µM (inactive)	28.6 µM (inactive)	5.61 µM (inactive)	20.8 µM (inactive)	22.8 µM (inactive)	14.9 µM (inactive)	2.72 µM (inactive)	2.25 µM (inactive)
C/C(=N\NC(=S)N1CCN(c2ccccn2)CC1)c1cccc2cccnc12	4.07 µM (inactive)	2.84 µM (inactive)	3.59 µM (inactive)	12 µM (inactive)	3.6 µM (inactive)	6.31 µM (inactive)	3.68	2.28 µM (inactive)	5.15 µM (inactive)	3.43 µM (inactive)	3.33 µM (inactive)	4.76 µM (inactive)	0.859 µM (active)	13.1 µM (inactive)	14.3 µM (inactive)	5.77 µM (inactive)	3.37 µM (inactive)	3.56 µM (inactive)	0.828 µM (active)	3.21 µM (inactive)
COc1ccc(N2C(=O)[C@H]3CC(C)c4c([nH]c5ccccc45)[C@H]3C2=O)cc1 (stereo not given in full)	6.38 µM (inactive)	4.6 µM (inactive)	4.6 µM (inactive)	8.15 µM (inactive)	2.25 µM (inactive)	9.86 µM (inactive)	2.72	1.1 µM (active)	2.48 µM (inactive)	5.64 µM (inactive)	1.53 µM (inactive)	2.11 µM (inactive)	2.15 µM (inactive)	2.03 µM (inactive)	8.83 µM (inactive)	5.66 µM (inactive)	1.74 µM (inactive)	4.7 µM (inactive)	1.83 µM (inactive)	3.78 µM (inactive)
COC(=O)c1ccccc1/C=C1\Cc2ccc(C)c(C)c2C1=O	> 100 µM (inactive)	> 100 µM (inactive)	> 100 µM (inactive)	> 100 µM (inactive)	> 100 µM (inactive)	> 100 µM (inactive)	> 100	65.5 µM (inactive)	> 100 µM (inactive)	> 100 µM (inactive)	> 100 µM (inactive)	> 100 µM (inactive)	> 100 µM (inactive)	35.4 µM (inactive)	> 100 µM (inactive)	> 100 µM (inactive)	77.8 µM (inactive)	> 100 µM (inactive)	> 100 µM (inactive)	> 100 µM (inactive)
C/C1=C/C(C)CC(C)OC(=O)C(C)NC(=O)C(Cc2ccc(O)c(I)c2)N(C)C(=O)C(C)NC(=O)C(C)C1 (stereo not given)	< 0.0249 µM (active)	< 0.01 µM (active)	< 0.01 µM (active)	< 0.01 µM (active)	< 0.0371 µM (active)	< 0.01 µM (active)	< 0.0164	< 0.01 µM (active)	< 0.015 µM (active)	0.0354 µM (active)	< 0.01 µM (active)	< 0.0242 µM (active)	< 0.01 µM (active)	< 0.01 µM (active)	< 0.01 µM (active)	< 0.0363 µM (active)	< 0.0316 µM (active)	0.0302 µM (active)	< 0.01 µM (active)	< 0.0187 µM (active)
Cc1cc2nc(N)n[n+]([O-])c2cc1C	> 100 µM (inactive)	> 100 µM (inactive)	> 100 µM (inactive)	> 100 µM (inactive)	> 100 µM (inactive)	> 100 µM (inactive)	> 100	> 100 µM (inactive)	> 100 µM (inactive)	> 100 µM (inactive)	> 100 µM (inactive)	> 100 µM (inactive)	> 100 µM (inactive)	> 10 µM (inactive)	> 100 µM (inactive)	> 100 µM (inactive)	> 100 µM (inactive)	> 100 µM (inactive)	> 100 µM (inactive)	> 100 µM (inactive)
O=C1CSC(c2cccc(Oc3ccccc3)c2)N1c1cccc(Cl)c1Cl (stereo not given)	31.5 µM (inactive)	24.4 µM (inactive)	13.6 µM (inactive)	26.1 µM (inactive)	13.7 µM (inactive)	34.6 µM (inactive)	19.5	20.7 µM (inactive)	40.4 µM (inactive)	19.8 µM (inactive)	57.1 µM (inactive)	30.4 µM (inactive)	19.8 µM (inactive)	41 µM (inactive)	19.9 µM (inactive)	28.5 µM (inactive)	39.5 µM (inactive)	45 µM (inactive)	22.7 µM (inactive)	22.5 µM (inactive)
CN(C)CCNC(=O)c1cnn(C)c1[N+](=O)[O-]	> 100 µM (inactive)	53 µM (inactive)	46.7 µM (inactive)	> 100 µM (inactive)	63.4 µM (inactive)	> 100 µM (inactive)	> 100	> 100 µM (inactive)	> 100 µM (inactive)	> 100 µM (inactive)	65.6 µM (inactive)	18.6 µM (inactive)	> 100 µM (inactive)	> 100 µM (inactive)	> 100 µM (inactive)	> 100 µM (inactive)	> 100 µM (inactive)	> 100 µM (inactive)	35.2 µM (inactive)	> 100 µM (inactive)
